In patent US20140073631A1 (priority 2012, published 2014):
Values after ≈ are worked out from the molar mass of the structure shown.

What was measured:
[1] = tested on: Mtb H37Rv (SRI 1345); experiment: microbe, parasite or virus in culture; format: cell-based, Mycobacterium tuberculosis
[2] = tested on: Mtb H37Rv (SRI 1345) in murine J774 cells; format: cell-based, Mycobacterium tuberculosis
[3] = tested on: Mtb H37Rv (SRI 1345), nonreplicating persistence; format: cell-based, Mycobacterium tuberculosis
[4] = tested on: uninfected J774 macrophages; details: mouse
[5] = tested on: H37Rv Colorado strain; experiment: TB MIC Testing (Table 9); format: cell-based; details: Mycobacterium tuberculosis, read-out: MIC Value, Standard Test Strain H27Rv
[6] = tested on: Mtb H37Rv (SRI 1345); experiment: microbe, parasite or virus in culture; format: cell-based, Mycobacterium tuberculosis; remark: listed apart in the source
[7] = tested on: TB; experiment: DMID TB MIC Results (Table 10); format: cell-based; details: Mycobacterium tuberculosis; solvent DMSO
[8] = tested on: H37Rv Colorado strain; experiment: MBC Determination with H37Rv Colorado strain (Table 9); format: cell-based; details: Mycobacterium tuberculosis; Performed with H37Rv

CO[C@H]1/C=C/O[C@@]2(C)Oc3c(C)c(O)c4c(O)c(c(/C=N/N5CCN(C)CC5)c(O)c4c3C2=O)NC(=O)/C(C)=C\C=C\[C@H](C)[C@H](O)[C@@H](C)[C@@H](O)[C@@H](C)[C@H](OC(C)=O)[C@@H]1C [Rifampin, rifampin, reference compound]
% inhibition at the MIC concentration [1]: 81% | MIC ([1]; Mycobacterium tuberculosis, H37RV, 168 h, read-out: MIC H37Rv): 49 ng/mL (≈ 59.5 nM) | Microphage log reduction (high conc.) [2]: 2.00 | Microphage log reduction (low conc.) [2]: 0.76 | Microphage log reduction (mid conc.) [2]: 1.11 | LORA [3]: 1.56 µg/mL | MTT % viability (high conc.) [4]: 86% | MTT % viability (low conc.) [4]: 97% | MTT % viability (mid conc.) [4]: 96% | MIC [5]: 3.1 ng/mL (≈ 3.77 nM) | Colony Count [6]: 23 CFU | MBC ([6]; Mycobacterium tuberculosis, H37RV): 3120 ng/mL (≈ 3800 nM) | MIC [7]: 6 ng/mL (≈ 7.29 nM) | MBC [8]: 6.3 ng/mL (≈ 7.66 nM)
